Paper PMC6491884, “Synthesis and Biological Evaluation of 4β-N-Acetylamino Substituted Podophyllotoxin Derivatives as Novel Anticancer Agents” (Frontiers in Chemistry, 2019)
Where two headings read alike, the source gives them in different places.

Assays:
[1] = system: EC9706 (human esophageal squamous cell carcinoma); assay: MTT growth inhibition assay, EC9706; assay type: cell-based
Description: (§1) Target compounds 12a–t were evaluated for in vitro cytotoxicity against four human tumor cell lines, including H460 (non-small cell lung carcinoma), HeLA (human cervical carcinoma), EC9706 (human esophageal squamous cell carcinoma), and T24 (human bladder carcinoma), using HaCaT (human immortalized epidermal cells) as a human non-malignant cell line. Etoposide (3) was included as a positive control. The screening procedure was based on the 3-(4, 5-dimethylthiazol-2-yl)-2, 5-diphenyltetrazoliun bromide (MTT) growth inhibition assay with triplicate experiments, and the results are summarized in Table 1.
(§2) The four human cancer cell lines and a normal human epidermal cell line of the screening panel, including H460 (human non-small cell lung carcinoma), HeLA (human cervical carcinoma), EC9706 (human esophageal squamous cell carcinoma), T24 (human bladder carcinoma), and HaCaT (human immortalized epidermal cells), were purchased from American Type Culture Collection (ATCC, Manassas, VA, U.S.A.). H460, EC9706, and T24 were maintained in RPMI 1640 medium containing 10% Fetal Bovine Serum, 100 units/ml penicillin, 100 μg/ml streptomycin under humidified incubator with 5% CO2 atmosphere at 37°C. HeLA and HaCaT were maintained in Dulbecco′s […] (DMEM) supplemented with 10% Fetal Bovine Serum 100 units/ml penicillin, 100 μg/ml streptomycin in a humidified incubator and 5% CO2 atmosphere at 37°C. Logarithmically growing cells were used for the following experiments.
(§3) The cytotoxicity of the synthesized compounds 12a–t against a panel of human cell lines was determined by the 3-(4,5-dimethylthiazol-2-yl)-2,5-diphenyltetrazoliun bromide (MTT) growth inhibition assay. The five human cell lines were, respectively, plated in 96-well-culture plates at the density of 1 × 10^5 cells per well and incubated for 24 h. Cells were exposed to different concentrations of synthetic podophyllotoxin derivatives for 48 h. MTT was added with a dose of 5 mg/mL in phosphate-buffered saline. After incubation for 4 h at 37°C, the purple formazan crystals were dissolved with […] dimethyl sulfoxide and the absorbance was measured at 570 nm in an ELISA reader. Antiproliferative activity was expressed using the IC50 value defined as the concentration of synthetic podophyllotoxin derivatives inhibiting cell proliferation by 50%. The cell viability ratio was calculated by the following formula: cell viability ratio (%) = OD treated /OD control × 100% (Ma et al., [2014]).

[2] = system: H460 (human non-small cell lung carcinoma); assay: MTT growth inhibition assay, H460; assay type: cell-based
Description: as §1, §2, §3

[3] = system: T24 (human bladder carcinoma); assay: MTT growth inhibition assay, T24; assay type: cell-based; conditions: T24, 48 h
Description: as §1, §2, §3

[4] = system: HaCaT (human immortalized epidermal cells); assay: MTT growth inhibition assay, HaCaT normal cells; assay type: cell-based; conditions: 48 h
Description: as §1, §2, §3

[5] = system: HeLA (human cervical carcinoma); assay: MTT growth inhibition assay, HeLA; assay type: cell-based; conditions: 48 h
Description: as §1, §2, §3

[6] = system: four human cancer cell lines (EC-9706, HeLA, T-24 and H460) and a normal human epidermal cell line (HaCaT); assay: MTT growth inhibition assay, whole cell line panel; assay type: cell-based; conditions: read-out: IC50 values across the cell lines
Description: as §1, with “1. […]” for “1.”
The cytotoxicity of the synthesized compounds 12a–t against a panel of human cell lines was determined by the 3-(4,5-dimethylthiazol-2-yl)-2,5-diphenyltetrazoliun bromide (MTT) growth inhibition assay. […] After incubation for 4 h at 37°C, the purple formazan crystals were dissolved with […] dimethyl sulfoxide and the absorbance was measured at 570 nm in an ELISA reader. […] The cell viability ratio was calculated by the following formula: cell viability ratio (%) = OD treated /OD control × 100% (Ma et al., [2014]).

[7] = EC9706, 48 h, read-out: IC50 (μM) EC9706
[8] = NCI-H460, 48 h, read-out: IC50 (μM) H460
[9] = read-out: IC50 (μM) T24, MTT, 48 h, n = 3
[10] = read-out: IC50 (μM) HaCaT, MTT, 48 h, n = 3, normal cell line
[11] = Homo sapiens, read-out: IC50 (μM) HeLA, MTT, 48 h, n = 3

COc1cc([C@@H]2c3cc4c(cc3[C@@H](NC(=O)CN3CCCC3)[C@H]3COC(=O)[C@H]23)OCO4)cc(OC)c1O [Compound 12a]
IC50 [1, 7]: > 50 µM | IC50 [2, 8]: 9.61 ± 0.22 µM | melting point: 113 to 116 °C | IC50 [3, 9]: > 50 µM | IC50 [4, 10]: 18.2 ± 1.28 µM | IC50 [5, 11]: 12.7 ± 1.38 µM

COc1cc([C@@H]2c3cc4c(cc3[C@@H](NC(=O)CN3CCCCC3)[C@H]3COC(=O)[C@H]23)OCO4)cc(OC)c1O [Compound 12b]
IC50 [1, 7]: > 50 µM | IC50 [2, 8]: 5.91 ± 0.65 µM | melting point: 107 to 110 °C | IC50 [3, 9]: > 50 µM | IC50 [4, 10]: 5.17 ± 0.36 µM | IC50 [5, 11]: 5.72 ± 0.74 µM

COc1cc([C@@H]2c3cc4c(cc3[C@@H](NC(=O)CN3CCCCC3)[C@H]3COC(=O)[C@H]23)OCO4)cc(OC)c1OC [Compound 12c]
IC50 [1, 7]: > 50 µM | IC50 [2, 8]: > 50 µM | melting point: 229 to 231 °C | IC50 [3, 9]: > 50 µM | IC50 [4, 10]: 1.89 ± 0.27 µM | IC50 [5, 11]: > 50 µM

COc1cc([C@@H]2c3cc4c(cc3[C@@H](NC(=O)CN3CCOCC3)[C@H]3COC(=O)[C@H]23)OCO4)cc(OC)c1O [Compound 12d, 4β-N-[2′′-(morpholino)-acetamide]-4′-demethylpodophyllotoxin]
IC50 [1, 7]: > 50 µM | IC50 [2, 8]: > 50 µM | melting point: 109 to 111 °C | IC50 [3, 9]: > 50 µM | IC50 [4, 10]: > 50 µM | IC50 [5, 11]: > 50 µM

COc1cc([C@@H]2c3cc4c(cc3[C@@H](NC(=O)CN3CCOCC3)[C@H]3COC(=O)[C@H]23)OCO4)cc(OC)c1OC [Compound 12e, 4β-N-[(2′′-morpholino)-acetamide]-podophyllotoxin]
IC50 [1, 7]: > 50 µM | IC50 [2, 8]: > 50 µM | melting point: 119 to 121 °C | IC50 [3, 9]: > 50 µM | IC50 [4, 10]: > 50 µM | IC50 [5, 11]: > 50 µM

CCCNCC(=O)N[C@@H]1c2cc3c(cc2[C@@H](c2cc(OC)c(O)c(OC)c2)[C@H]2C(=O)OC[C@@H]21)OCO3 [Compound 12f]
IC50 [1, 7]: 11.7 ± 0.26 µM | IC50 [2, 8]: 2.54 ± 0.34 µM | melting point: 199 to 202 °C | IC50 [3, 9]: 18.6 ± 1.57 µM | IC50 [4, 10]: 2.59 ± 0.13 µM | IC50 [5, 11]: 23.9 ± 1.04 µM

CCCCNCC(=O)N[C@@H]1c2cc3c(cc2[C@@H](c2cc(OC)c(O)c(OC)c2)[C@H]2C(=O)OC[C@@H]21)OCO3 [Compound 12h]
IC50 [6]: 1.2 to 22.8 µM | IC50 [1, 7]: 22.8 ± 0.32 µM | IC50 [2, 8]: 1.57 ± 0.37 µM | melting point: 115 to 118 °C | IC50 [3, 9]: 12.1 ± 1.28 µM | IC50 [4, 10]: 1.54 ± 0.29 µM | IC50 [5, 11]: 1.21 ± 0.31 µM

CCCCNCC(=O)N[C@@H]1c2cc3c(cc2[C@@H](c2cc(OC)c(OC)c(OC)c2)[C@H]2C(=O)OC[C@@H]21)OCO3 [Compound 12i]
IC50 [1, 7]: > 50 µM | IC50 [2, 8]: 37.8 ± 1.01 µM | melting point: 92 to 95 °C | IC50 [3, 9]: > 50 µM | IC50 [4, 10]: > 50 µM | IC50 [5, 11]: > 50 µM

CCN(CC)CC(=O)N[C@@H]1c2cc3c(cc2[C@@H](c2cc(OC)c(O)c(OC)c2)[C@H]2C(=O)OC[C@@H]21)OCO3 [Compound 12k]
IC50 [1, 7]: > 50 µM | IC50 [2, 8]: > 50 µM | melting point: 106 to 108 °C | IC50 [3, 9]: > 50 µM | IC50 [4, 10]: > 50 µM | IC50 [5, 11]: 45.8 ± 0.71 µM

COc1cc([C@@H]2c3cc4c(cc3[C@@H](NC(=O)CN(CCO)CCO)[C@H]3COC(=O)[C@H]23)OCO4)cc(OC)c1O [Compound 12l]
IC50 [1, 7]: > 50 µM | IC50 [2, 8]: > 50 µM | melting point: 212 to 214 °C | IC50 [3, 9]: > 50 µM | IC50 [4, 10]: 4.21 ± 0.17 µM | IC50 [5, 11]: > 50 µM

COc1cc([C@@H]2c3cc4c(cc3[C@@H](NC(=O)CN(CCO)CCO)[C@H]3COC(=O)[C@H]23)OCO4)cc(OC)c1OC [Compound 12m]
IC50 [1, 7]: > 50 µM | IC50 [2, 8]: > 50 µM | melting point: 105 to 107 °C | IC50 [3, 9]: > 50 µM | IC50 [4, 10]: > 50 µM | IC50 [5, 11]: 36.4 ± 0.49 µM

COc1cc([C@@H]2c3cc4c(cc3[C@@H](NC(=O)CNCc3ccccc3)[C@H]3COC(=O)[C@H]23)OCO4)cc(OC)c1O [Compound 12n]
IC50 [1, 7]: 40.1 ± 2.43 µM | IC50 [2, 8]: 16.5 ± 0.39 µM | melting point: 141 to 143 °C | IC50 [3, 9]: > 50 µM | IC50 [4, 10]: 13.3 ± 0.8 µM | IC50 [5, 11]: 6.26 µM | IC50 ([5]; read-out: IC50 (μM) HeLA, MTT, n = 3): 6.25 ± 0.21 µM

COc1cc([C@@H]2c3cc4c(cc3[C@@H](NC(=O)CNCc3ccccc3)[C@H]3COC(=O)[C@H]23)OCO4)cc(OC)c1OC [Compound 12o]
IC50 [1, 7]: 11.3 ± 0.22 µM | IC50 [2, 8]: 26.9 ± 0.92 µM | melting point: 111 to 113 °C | IC50 [3, 9]: > 50 µM | IC50 [4, 10]: 2.14 ± 0.33 µM | IC50 [5, 11]: 8.55 ± 0.28 µM

COc1cc([C@@H]2c3cc4c(cc3[C@@H](NC(=O)CNc3ccc(F)cc3)[C@H]3COC(=O)[C@H]23)OCO4)cc(OC)c1O [Compound 12p]
IC50 [1, 7]: > 50 µM | IC50 [2, 8]: 9.75 ± 0.26 µM | melting point: 159 to 162 °C | IC50 [3, 9]: > 50 µM | IC50 [4, 10]: > 50 µM | IC50 [5, 11]: > 50 µM

COc1ccc(CCNCC(=O)N[C@@H]2c3cc4c(cc3[C@@H](c3cc(OC)c(O)c(OC)c3)[C@H]3C(=O)OC[C@@H]32)OCO4)cc1OC [Compound 12q]
IC50 [1, 7]: 20.7 ± 0.72 µM | IC50 [2, 8]: 3.43 ± 0.17 µM | melting point: 229 to 231 °C | IC50 [3, 9]: > 50 µM | IC50 [4, 10]: 3.69 ± 0.19 µM | IC50 [5, 11]: 4.57 ± 0.3 µM

COc1ccc(CCNCC(=O)N[C@@H]2c3cc4c(cc3[C@@H](c3cc(OC)c(OC)c(OC)c3)[C@H]3C(=O)OC[C@@H]32)OCO4)cc1OC [Compound 12r]
IC50 [1, 7]: > 50 µM | IC50 [2, 8]: > 50 µM | melting point: 106 to 108 °C | IC50 [3, 9]: > 50 µM | IC50 [4, 10]: > 50 µM | IC50 [5, 11]: > 50 µM

COc1cc([C@@H]2c3cc4c(cc3[C@@H](NC(=O)CNCCc3ccc(O)cc3)[C@H]3COC(=O)[C@H]23)OCO4)cc(OC)c1O [Compound 12s]
IC50 [1, 7]: 14.3 ± 0.69 µM | IC50 [2, 8]: 5.94 ± 0.18 µM | melting point: 234 to 236 °C | IC50 [3, 9]: 12.7 ± 0.73 µM | IC50 [4, 10]: 8.67 ± 0.72 µM | IC50 [5, 11]: 2.27 ± 0.26 µM

COc1cc([C@@H]2c3cc4c(cc3[C@@H](NC(=O)CNCCc3ccc(O)cc3)[C@H]3COC(=O)[C@H]23)OCO4)cc(OC)c1OC [Compound 12t]
IC50 [1, 7]: > 50 µM | IC50 [2, 8]: 42.1 ± 1.21 µM | melting point: 116 to 119 °C | IC50 [3, 9]: > 50 µM | IC50 [4, 10]: > 50 µM | IC50 [5, 11]: > 50 µM

COc1cc([C@@H]2c3cc4c(cc3[C@@H](O[C@@H]3O[C@@H]5CO[C@@H](C)O[C@H]5[C@H](O)[C@H]3O)[C@H]3COC(=O)[C@H]23)OCO4)cc(OC)c1O [Etoposide, etoposide, reference compound]
IC50 ([6]; MTT, span over the cell line panel): 8.4 to 78.2 µM | IC50 ([1]; EC9706, MTT, 48 h, n = 3, read-out: IC50 (μM) EC9706): > 50 µM | IC50 ([2]; NCI-H460, MTT, 48 h, n = 3, read-out: IC50 (μM) H460): 43.2 ± 1.45 µM | IC50 ([3]; MTT, 48 h, n = 3, read-out: IC50 (μM) T24): 8.43 ± 0.33 µM | IC50 ([4]; MTT, n = 3, normal cell line, read-out: IC50 (μM) HaCaT): 48.7 ± 1.69 µM | IC50 ([5]; Homo sapiens, MTT, n = 3, read-out: IC50 (μM) HeLA): 3.12 ± 0.35 µM
